Assay [1] concerns the target T1, Very long-chain specific acyl-CoA dehydrogenase, mitochondrial (Homo sapiens, UniProt P49748).
T1 sequence (P49748 whole entry): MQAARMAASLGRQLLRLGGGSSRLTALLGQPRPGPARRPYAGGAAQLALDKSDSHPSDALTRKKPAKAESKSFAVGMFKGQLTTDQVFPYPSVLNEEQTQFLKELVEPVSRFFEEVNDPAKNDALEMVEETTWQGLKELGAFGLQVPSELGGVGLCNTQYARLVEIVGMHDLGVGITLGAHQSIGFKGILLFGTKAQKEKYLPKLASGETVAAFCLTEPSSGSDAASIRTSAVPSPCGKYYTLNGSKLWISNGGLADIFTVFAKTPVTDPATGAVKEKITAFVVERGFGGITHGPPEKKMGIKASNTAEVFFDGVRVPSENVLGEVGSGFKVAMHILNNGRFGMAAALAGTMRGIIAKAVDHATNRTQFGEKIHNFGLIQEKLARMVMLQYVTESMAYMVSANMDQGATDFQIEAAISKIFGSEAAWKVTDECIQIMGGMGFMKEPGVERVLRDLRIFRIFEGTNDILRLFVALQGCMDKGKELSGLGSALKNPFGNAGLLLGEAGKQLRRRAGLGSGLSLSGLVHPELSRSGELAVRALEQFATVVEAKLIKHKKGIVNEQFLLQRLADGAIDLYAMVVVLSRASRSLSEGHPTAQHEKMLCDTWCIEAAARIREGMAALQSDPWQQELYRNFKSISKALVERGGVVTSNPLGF

For assay [2], the target named is DnaJ homolog subfamily A member 1 (Homo sapiens, UniProt P31689).
Sequence of DnaJ homolog subfamily A member 1 (P31689 whole entry): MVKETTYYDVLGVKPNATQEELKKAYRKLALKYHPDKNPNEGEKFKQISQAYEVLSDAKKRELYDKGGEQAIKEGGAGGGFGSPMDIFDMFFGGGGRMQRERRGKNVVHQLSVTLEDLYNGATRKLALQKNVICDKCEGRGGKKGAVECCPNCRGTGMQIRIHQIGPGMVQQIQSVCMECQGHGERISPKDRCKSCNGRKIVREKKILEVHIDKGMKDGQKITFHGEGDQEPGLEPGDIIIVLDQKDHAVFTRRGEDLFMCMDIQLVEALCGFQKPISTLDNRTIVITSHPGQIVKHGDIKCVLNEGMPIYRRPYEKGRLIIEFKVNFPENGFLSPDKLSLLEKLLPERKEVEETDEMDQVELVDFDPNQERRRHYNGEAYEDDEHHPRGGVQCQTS
The target of assay [3] is T2, Mitogen-activated protein kinase kinase kinase kinase 2 (Homo sapiens, UniProt Q12851).
T2 sequence (Q12851 whole entry): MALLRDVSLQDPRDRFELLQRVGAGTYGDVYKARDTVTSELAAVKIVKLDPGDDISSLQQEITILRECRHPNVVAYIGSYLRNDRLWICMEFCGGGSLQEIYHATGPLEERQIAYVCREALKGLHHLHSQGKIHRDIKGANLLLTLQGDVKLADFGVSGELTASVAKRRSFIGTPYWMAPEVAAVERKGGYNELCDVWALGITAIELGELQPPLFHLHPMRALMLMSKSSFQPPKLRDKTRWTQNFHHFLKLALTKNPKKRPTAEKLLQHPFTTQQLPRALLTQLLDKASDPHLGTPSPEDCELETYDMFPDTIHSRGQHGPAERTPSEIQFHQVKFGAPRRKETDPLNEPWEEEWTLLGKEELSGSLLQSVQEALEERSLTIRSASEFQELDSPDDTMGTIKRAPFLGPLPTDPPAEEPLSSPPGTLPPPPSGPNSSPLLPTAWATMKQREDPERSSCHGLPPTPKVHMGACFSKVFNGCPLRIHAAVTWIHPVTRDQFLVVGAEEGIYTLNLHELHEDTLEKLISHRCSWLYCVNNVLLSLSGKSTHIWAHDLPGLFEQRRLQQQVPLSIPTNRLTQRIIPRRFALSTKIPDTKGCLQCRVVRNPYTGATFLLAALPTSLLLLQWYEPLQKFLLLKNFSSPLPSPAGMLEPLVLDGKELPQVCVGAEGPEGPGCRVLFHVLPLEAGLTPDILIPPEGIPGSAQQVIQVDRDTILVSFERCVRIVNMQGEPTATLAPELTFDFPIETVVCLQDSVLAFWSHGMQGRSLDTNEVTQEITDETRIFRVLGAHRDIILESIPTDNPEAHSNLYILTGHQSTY

Assay [4] concerns the target Mitogen-activated protein kinase 7 (Homo sapiens, UniProt Q13164).
Assay [5] concerns the target T3, MAP kinase-activated protein kinase 5 (Homo sapiens, UniProt Q8IW41).
T3 sequence (Q8IW41 whole entry): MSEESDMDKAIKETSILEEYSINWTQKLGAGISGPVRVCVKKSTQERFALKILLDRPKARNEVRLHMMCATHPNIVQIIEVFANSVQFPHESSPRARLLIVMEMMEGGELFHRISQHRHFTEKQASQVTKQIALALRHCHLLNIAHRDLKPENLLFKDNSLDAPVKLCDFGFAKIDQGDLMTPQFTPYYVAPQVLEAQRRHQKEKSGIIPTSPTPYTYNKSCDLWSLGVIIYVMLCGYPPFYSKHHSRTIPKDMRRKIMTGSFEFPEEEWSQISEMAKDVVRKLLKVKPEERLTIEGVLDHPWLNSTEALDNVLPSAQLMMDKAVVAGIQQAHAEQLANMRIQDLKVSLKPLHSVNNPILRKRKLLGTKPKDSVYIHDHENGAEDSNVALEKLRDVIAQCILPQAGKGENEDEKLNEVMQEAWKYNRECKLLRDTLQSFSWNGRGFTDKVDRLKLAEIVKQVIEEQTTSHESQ

The target of assay [6] is Ribosomal protein S6 kinase alpha-1 (Homo sapiens, UniProt Q15418).
Sequence of Ribosomal protein S6 kinase alpha-1 (Q15418 whole entry): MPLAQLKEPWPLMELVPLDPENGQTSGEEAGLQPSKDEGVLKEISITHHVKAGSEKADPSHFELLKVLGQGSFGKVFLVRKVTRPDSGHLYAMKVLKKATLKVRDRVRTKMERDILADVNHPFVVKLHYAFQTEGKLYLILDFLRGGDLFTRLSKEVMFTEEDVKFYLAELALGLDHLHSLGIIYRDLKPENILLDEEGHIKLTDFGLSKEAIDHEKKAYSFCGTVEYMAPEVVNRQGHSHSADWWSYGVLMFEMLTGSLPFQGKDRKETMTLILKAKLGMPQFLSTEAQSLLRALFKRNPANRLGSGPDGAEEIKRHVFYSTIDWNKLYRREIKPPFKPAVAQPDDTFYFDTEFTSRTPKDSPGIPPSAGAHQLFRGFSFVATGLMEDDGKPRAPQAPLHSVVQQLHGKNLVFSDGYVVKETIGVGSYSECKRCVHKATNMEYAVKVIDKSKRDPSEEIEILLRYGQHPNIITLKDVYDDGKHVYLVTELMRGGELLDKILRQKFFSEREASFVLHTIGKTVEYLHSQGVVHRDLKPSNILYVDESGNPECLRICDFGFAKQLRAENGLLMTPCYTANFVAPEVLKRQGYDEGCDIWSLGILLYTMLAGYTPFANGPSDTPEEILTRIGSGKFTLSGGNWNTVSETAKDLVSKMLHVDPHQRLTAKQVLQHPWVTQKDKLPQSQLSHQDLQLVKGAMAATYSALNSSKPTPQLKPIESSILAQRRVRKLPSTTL
Assay [7] concerns the target U5 small nuclear ribonucleoprotein 200 kDa helicase (Homo sapiens, UniProt O75643).
In assay [8] the target is T4, ATP-dependent RNA helicase DDX1 (Homo sapiens, UniProt Q92499).
T4 sequence (Q92499 whole entry): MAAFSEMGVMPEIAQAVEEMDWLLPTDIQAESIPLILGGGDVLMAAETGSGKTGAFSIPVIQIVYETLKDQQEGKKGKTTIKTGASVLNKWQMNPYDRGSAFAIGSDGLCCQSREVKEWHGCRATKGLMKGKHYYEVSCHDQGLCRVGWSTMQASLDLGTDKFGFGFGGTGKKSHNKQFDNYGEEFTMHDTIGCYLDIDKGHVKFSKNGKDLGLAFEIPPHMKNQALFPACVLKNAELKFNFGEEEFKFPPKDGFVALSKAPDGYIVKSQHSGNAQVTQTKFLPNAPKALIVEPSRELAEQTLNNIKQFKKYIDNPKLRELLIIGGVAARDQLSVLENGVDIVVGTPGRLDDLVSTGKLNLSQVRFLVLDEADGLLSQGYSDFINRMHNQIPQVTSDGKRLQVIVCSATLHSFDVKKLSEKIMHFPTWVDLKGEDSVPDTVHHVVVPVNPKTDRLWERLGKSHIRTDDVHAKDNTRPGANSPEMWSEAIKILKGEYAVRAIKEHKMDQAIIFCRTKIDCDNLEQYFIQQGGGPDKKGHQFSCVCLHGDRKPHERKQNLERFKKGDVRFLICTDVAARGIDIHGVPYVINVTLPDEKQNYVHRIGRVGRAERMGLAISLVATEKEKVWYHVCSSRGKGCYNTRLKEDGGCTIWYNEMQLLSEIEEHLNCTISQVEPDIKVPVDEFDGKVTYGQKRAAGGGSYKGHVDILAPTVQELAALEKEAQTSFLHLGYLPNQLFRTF

Assay [9] concerns the target Mitogen-activated protein kinase kinase kinase kinase 1 (Homo sapiens, UniProt Q92918).

Activity calls are given as the source filed them.
Also: in the data inactive means no Kd found up to 30 µM.

Sequence of U5 small nuclear ribonucleoprotein 200 kDa helicase (O75643 whole entry): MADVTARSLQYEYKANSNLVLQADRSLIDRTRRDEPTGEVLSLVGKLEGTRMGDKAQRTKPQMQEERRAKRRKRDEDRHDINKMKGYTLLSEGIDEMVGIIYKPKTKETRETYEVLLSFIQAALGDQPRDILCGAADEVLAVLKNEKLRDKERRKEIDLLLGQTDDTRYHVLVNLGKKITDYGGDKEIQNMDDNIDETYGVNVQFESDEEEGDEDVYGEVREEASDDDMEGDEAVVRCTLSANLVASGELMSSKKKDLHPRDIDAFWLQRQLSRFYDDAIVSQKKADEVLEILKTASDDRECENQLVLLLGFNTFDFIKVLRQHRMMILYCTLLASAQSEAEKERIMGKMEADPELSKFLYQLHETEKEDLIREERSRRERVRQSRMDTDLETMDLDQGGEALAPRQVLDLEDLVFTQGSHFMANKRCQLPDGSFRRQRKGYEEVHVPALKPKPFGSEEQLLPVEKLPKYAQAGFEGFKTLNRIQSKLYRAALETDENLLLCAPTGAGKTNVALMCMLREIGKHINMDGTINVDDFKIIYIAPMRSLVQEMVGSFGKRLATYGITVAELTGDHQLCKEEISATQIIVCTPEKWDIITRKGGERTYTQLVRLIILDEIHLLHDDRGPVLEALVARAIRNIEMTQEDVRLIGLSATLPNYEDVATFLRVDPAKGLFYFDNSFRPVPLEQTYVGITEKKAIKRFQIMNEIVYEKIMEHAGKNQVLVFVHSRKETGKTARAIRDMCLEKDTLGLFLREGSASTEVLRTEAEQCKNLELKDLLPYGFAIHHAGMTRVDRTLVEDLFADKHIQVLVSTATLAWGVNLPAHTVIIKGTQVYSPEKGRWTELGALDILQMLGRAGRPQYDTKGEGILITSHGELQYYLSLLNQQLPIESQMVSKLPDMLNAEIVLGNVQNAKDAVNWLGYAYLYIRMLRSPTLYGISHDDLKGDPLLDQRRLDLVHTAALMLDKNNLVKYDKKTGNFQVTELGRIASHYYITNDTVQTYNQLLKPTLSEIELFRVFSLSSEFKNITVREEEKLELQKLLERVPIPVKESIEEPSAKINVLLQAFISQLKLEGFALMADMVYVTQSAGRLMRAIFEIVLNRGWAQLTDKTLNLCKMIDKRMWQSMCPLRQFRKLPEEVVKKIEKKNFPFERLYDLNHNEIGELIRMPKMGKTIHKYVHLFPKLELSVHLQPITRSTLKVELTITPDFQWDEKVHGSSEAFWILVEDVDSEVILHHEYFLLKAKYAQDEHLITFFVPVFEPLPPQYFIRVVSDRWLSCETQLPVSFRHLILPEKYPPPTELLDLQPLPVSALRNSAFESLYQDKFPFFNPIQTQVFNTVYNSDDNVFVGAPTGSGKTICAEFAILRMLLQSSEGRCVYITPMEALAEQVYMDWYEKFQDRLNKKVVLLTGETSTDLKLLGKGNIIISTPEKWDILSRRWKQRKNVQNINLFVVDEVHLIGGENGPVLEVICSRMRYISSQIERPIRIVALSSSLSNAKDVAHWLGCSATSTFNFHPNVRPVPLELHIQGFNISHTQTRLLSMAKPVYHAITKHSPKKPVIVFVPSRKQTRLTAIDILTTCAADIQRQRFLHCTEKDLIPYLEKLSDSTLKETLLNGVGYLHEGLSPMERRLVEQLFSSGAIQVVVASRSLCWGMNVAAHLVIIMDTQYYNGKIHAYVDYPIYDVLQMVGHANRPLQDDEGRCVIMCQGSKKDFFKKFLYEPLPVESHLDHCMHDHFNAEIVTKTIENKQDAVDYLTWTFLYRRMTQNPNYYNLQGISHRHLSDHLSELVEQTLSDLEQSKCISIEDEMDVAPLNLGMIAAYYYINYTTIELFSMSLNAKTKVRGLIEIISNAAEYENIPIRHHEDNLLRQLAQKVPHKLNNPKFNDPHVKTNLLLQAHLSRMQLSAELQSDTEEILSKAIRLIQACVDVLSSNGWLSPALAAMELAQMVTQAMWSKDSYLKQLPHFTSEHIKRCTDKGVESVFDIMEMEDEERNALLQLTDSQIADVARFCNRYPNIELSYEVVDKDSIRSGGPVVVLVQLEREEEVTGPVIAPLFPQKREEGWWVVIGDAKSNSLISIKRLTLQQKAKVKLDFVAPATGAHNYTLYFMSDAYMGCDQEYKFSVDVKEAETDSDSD
Sequence of Mitogen-activated protein kinase kinase kinase kinase 1 (Q92918 whole entry): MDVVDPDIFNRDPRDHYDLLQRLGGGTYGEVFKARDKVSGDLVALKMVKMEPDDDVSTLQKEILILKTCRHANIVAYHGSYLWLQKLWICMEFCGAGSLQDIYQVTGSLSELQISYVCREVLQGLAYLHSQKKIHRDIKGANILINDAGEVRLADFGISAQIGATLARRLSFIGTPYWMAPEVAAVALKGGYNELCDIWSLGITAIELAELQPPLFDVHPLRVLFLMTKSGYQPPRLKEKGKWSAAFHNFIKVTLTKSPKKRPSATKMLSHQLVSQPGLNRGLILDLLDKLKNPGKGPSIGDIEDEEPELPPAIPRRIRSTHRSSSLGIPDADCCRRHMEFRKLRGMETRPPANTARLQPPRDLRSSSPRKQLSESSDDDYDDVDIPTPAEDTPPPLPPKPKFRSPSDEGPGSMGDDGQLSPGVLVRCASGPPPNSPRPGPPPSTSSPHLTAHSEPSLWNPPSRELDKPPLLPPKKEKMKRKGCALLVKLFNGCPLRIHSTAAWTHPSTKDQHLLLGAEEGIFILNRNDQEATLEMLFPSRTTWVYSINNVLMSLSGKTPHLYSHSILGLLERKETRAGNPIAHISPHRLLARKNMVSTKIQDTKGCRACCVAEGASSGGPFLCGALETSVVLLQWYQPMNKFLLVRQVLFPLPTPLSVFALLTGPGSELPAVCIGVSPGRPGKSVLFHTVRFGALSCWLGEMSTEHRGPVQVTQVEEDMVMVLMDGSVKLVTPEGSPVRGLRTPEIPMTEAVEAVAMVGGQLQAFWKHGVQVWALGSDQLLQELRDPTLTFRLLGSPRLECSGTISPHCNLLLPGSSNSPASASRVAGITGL
Sequence of Mitogen-activated protein kinase 7 (Q13164 whole entry): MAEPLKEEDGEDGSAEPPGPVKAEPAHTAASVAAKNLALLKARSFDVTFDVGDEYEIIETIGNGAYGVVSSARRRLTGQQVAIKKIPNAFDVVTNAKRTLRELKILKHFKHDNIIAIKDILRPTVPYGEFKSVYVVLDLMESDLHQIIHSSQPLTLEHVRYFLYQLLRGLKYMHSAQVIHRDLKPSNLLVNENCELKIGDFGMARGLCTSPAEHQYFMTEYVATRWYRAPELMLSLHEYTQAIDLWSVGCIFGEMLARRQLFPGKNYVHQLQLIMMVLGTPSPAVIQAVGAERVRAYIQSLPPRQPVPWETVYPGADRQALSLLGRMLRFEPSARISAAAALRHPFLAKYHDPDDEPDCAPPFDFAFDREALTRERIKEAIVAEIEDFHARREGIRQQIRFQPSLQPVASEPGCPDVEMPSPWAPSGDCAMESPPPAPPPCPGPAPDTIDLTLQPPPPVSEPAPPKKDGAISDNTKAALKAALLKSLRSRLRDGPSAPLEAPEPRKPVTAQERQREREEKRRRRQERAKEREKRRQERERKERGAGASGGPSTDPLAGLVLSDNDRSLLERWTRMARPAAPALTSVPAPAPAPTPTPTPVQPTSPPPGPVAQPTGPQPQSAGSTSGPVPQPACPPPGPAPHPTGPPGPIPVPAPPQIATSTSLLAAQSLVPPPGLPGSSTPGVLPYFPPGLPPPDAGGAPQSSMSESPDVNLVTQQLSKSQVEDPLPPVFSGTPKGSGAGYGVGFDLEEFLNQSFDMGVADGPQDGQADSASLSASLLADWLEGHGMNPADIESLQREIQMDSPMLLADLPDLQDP

A word on the Kd: it is the equilibrium constant for the complex coming apart. For the compound `CCc1nc(C(N)=O)c(Nc2ccc(N3CCC(N4CCN(C)CC4)CC3)c(OC)c2)nc1NC1CCOCC1` [GILTERITINIB], the Kd was > 30 µM (inactive) in [1]; > 30 µM (inactive) in [2]; 0.244 µM (active) in assay [3]; > 30 µM (inactive) in assay [4]; > 30 µM (inactive) in assay [5]; 3.44 µM (active) in [6]. The Kd in assay [7] is 1.38 µM (active).
On to `Cc1cc(Nc2nc(N[C@@H](C)c3ncc(F)cn3)ncc2Cl)n[nH]1` [AZD-1480], for which the Kd in assay [1], in assay [8], in assay [2], in assay [9], in assay [3] and in assay [4] was > 30 µM (inactive) in each case. For the same compound, the Kd in assay [5], in assay [6] and in assay [7] was > 30 µM (inactive) throughout.
As for `Cc1ccc(C(=O)Nc2ccc(Oc3cc4cnn(C)c4cc3-c3cn[nH]c3)c(F)c2)c(=O)n1-c1ccc(F)cc1` [MERESTINIB], the Kd in [1], in assay [8], in assay [2], in [9], in assay [3] and in assay [4] was > 30 µM (inactive) throughout. Besides, the Kd in [5], in [6] and in assay [7] was > 30 µM (inactive) in each case.
`C#Cc1cccc(Nc2ncnc3cc4c(cc23)OCCOCCOCCO4)c1` [ICOTINIB]: the Kd in assay [1], in [8], in assay [2], in [9], in [3] and in assay [4] was > 30 µM (inactive) each time. Further, the Kd in [5], in assay [6] and in assay [7] was > 30 µM (inactive) each time.
On to `COc1cc(F)c(F)c(Nc2ccc(I)cc2F)c1NS(=O)(=O)C1(C[C@H](O)CO)CC1` [REFAMETINIB], for which the Kd in assay [1], in [8], in [2], in assay [9], in assay [3] and in assay [4] was > 30 µM (inactive) in each case. Besides, the Kd in assay [5], in assay [6] and in assay [7] was > 30 µM (inactive) each time.
Turning to `Cc1cc(-c2cc(OC(=O)c3ccccc3)ccc2Cl)cc2nnc(Nc3ccc(OCCN4CCCC4)cc3)nc12` [TG100-801], the Kd in assay [1], in assay [8], in assay [2], in [3], in assay [4] and in [5] was > 30 µM (inactive) in each case. Moreover, the Kd in assay [6] was > 30 µM (inactive).
As to `O=C(O)c1ccc2c(c1)nc(Nc1cccc(Cl)c1)c1ccncc12` [SILMITASERTIB], the Kd in assay [1], in [2], in assay [9], in assay [3], in assay [4] and in assay [5] was > 30 µM (inactive) throughout. For the same compound, the Kd in assay [6] is 5.92 µM (active); in assay [7], > 30 µM (inactive).
For the compound `N#CCNC(=O)c1ccc(-c2ccnc(Nc3ccc(N4CCOCC4)cc3)n2)cc1` [MOMELOTINIB], the Kd in [1], in assay [8], in assay [2], in assay [9], in assay [3] and in [4] was > 30 µM (inactive) each time. For the same compound, the Kd in [5] and in assay [7] was > 30 µM (inactive) each time.
In the case of `c1cc(OCCN2CCCCC2)cc(-c2n[nH]c3ccc(-c4nc[nH]n4)cc23)c1` [CC-401], the Kd in assay [8], in [2], in [9], in assay [3], in assay [4] and in assay [5] was > 30 µM (inactive) throughout. Further, the Kd in assay [6] and in assay [7] was > 30 µM (inactive) throughout.
Turning to `C=CCN(/C=C1/C(=O)O[C@H](COC)[C@@]2(C)C1=C(O)C(=O)C1=C2[C@H](OC(C)=O)C[C@]2(C)C(=O)CC[C@@H]12)CC=C` [SONOLISIB], the Kd in assay [1], in assay [2], in assay [9], in assay [3], in assay [4] and in assay [5] was > 30 µM (inactive) throughout. The Kd in [6] and in assay [7] was > 30 µM (inactive) in each case.
Consider `C[C@]1(O)C[C@@H](c2nc(-c3ccc4ccc(-c5ccccc5)nc4c3)c3c(N)nccn32)C1` [LINSITINIB], for which the Kd in assay [1] was > 30 µM (inactive); in [8] it was > 30 µM (inactive); in assay [2] it was > 30 µM (inactive); in assay [9], > 30 µM (inactive); in assay [3] it was 0.067 µM (active); in assay [4], > 30 µM (inactive). The Kd in [6] and in assay [7] was > 30 µM (inactive) throughout.
